Data set [1] can be described thus: Saturation solubility of the drug in individual excipients. The format is physicochemical. The conditions noted are these: 37 °C, 24 h. The method, then:
The saturation solubility of each drug in each of the individual excipients was investigated in triplicate by the following procedure: first, drug and excipients were blended in 2-ml safe lock test tubes ([17], [23], [26]). After short, intense vortex mixing, the mixtures were agitated at 1000 rpm for 24 h at 37 °C under light protection using a ThermoMixer® C (Eppendorf AG, Hamburg, Germany) to achieve an equilibrium state ([7], [12], [16], [17], [23], [26], [27]). […] After centrifugation at 37 °C, a defined mass (50 mg) of the supernatant was withdrawn and transferred to a 25-ml volumetric flask, and the sample was diluted with methanol to a total volume of 25.0 ml. Finally, a sample of 1 ml was analyzed using one of the previously described drug-specific HPLC methods.

The conditions of data set [2]: media of pH 1, 4.5 and 6.8; 120 min; at the time of manufacture.
Protocol: All experiments were performed in triplicate with 25 mg of the specific drug, or an equivalent amount of drug-loaded SNEDDS (300 µl) using USP apparatus II (DT 800 LH, ERWEKA GmbH, Langen, Germany). Dissolution was studied in 0.1 N hydrochloric acid (pH 1.0), acetate buffer USP (pH 4.5), and phosphate buffer USP (pH 6.8). All experiments were performed in a media volume of 500 ml at 37 ± 0.5 °C using a paddle speed of 100 rpm. All samples were withdrawn automatically using a fraction collector, equipped with cannula filters of 10 µm pore size and manually diluted 1:1 (v/v) with acetonitrile before HPLC analysis.

In the case of `Cc1ccc(-c2cc(C(F)(F)F)nn2-c2ccc(S(N)(=O)=O)cc2)cc1` [Celecoxib], the “Solubility in Miglyol 812” value in data set [1] is “exceptionally low solubility”. Also, the Solubility in co-solvents result in data set [1] (Tetra EG, Transcutol HP, Carbowax PEG 400) was “high solubility”. The Dissolution behaviour result in data set [2] is reported as “poor solubility”.

Consider `CC(C)OC(=O)C(C)(C)Oc1ccc(C(=O)c2ccc(Cl)cc2)cc1` [Fenofibrate], for which the Dissolution behaviour entry in data set [2] was “poor solubility”.

(Values after PMC8816498, “A Customized Screening Tool Approach for the Development of a Self-Nanoemulsifying Drug Delivery System (SNEDDS)” (AAPS PharmSciTech, 2021).)
